In patent publication US20230000842A1, “METHODS OF TREATING CARTILAGE DISORDERS THROUGH INHIBITION OF CLK AND DYRK” (SAMUMED, LLC, priority 2019, published 2023) one finds EC50 and Emax data, which are given here for 31 compounds.

The target in one assay is CLK3 kinase (Homo sapiens, UniProt P49761). Briefly: CLK3 kinase activity assay (Z-lyte FRET).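 Note: kinase activity read as coumarin/fluorescein emission ratio by FRET, unphosphorylated peptide as 0% and phosphorylated peptide as 100% control, values from non-linear regression of dose-response curves.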 The following applies: Z-lyte Ser/Thr 18 peptide, 156 μM ATP, 1 h at room temperature. Type of assay: biochemical.
The next assay addresses CLK2 kinase (Homo sapiens, UniProt P49760). Briefly: CLK2 kinase activity assay (Z-lyte FRET).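 Note: FRET read-out as coumarin to fluorescein emission ratio, unphosphorylated peptide as 0% and phosphorylated peptide as 100% controls, duplicate reactions, non-linear regression fit of dose-response curves.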 It counts as biochemical. The conditions noted are these: Z-lyte Ser/Thr 6 peptide, 60 μM ATP, 1 h at room temperature.
In assay [1] the test system is Wnt pathway activity (SW480 colon carcinoma cells stably expressing the Sp5-Luc reporter). Briefly: Wnt pathway activity screening assay (Sp5-Luc reporter gene assay). The conditions noted are these: Homo sapiens, SW480, Table 4; SW480 cells stably expressing Sp5-Luc reporter, 10-point dose-response from 10 μM, 36 to 48 hours.
Assay [2] has as its system MMP-3 levels in supernatant of chondrocytes stimulated with IL1-β. The experiment in a line: Chondrocyte protection assay compound screening (MMP-3 LANCE Ultra). It counts as cell-based, human. The conditions noted are these: Homo sapiens, Chondrocyte, IL1-β 10 ng/mL overnight, 11-point curves from 3 μM to 0.05 nM; for Emax: read-out: Maximum % Inhibition. The gist of the method:
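Primary human chondrocytes (passage 2–5) in differentiation medium were stimulated with 10 ng/mL IL1-β for an overnight incubation at 37 °C. MMP-3 in 1:7-diluted supernatant was read by TR-FRET immunoassay against a standard curve, normalised to IL1-β-stimulated wells; EC50 and maximum % inhibition came from nonlinear regression.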
In general terms: TR-FRET usually uses a lanthanide donor and a delayed reading to cut background.

The term EC50 denotes the midpoint of the concentration-response curve. High values mean a need for much substance, low ones an effect from little substance.

Chain of CLK2 kinase (P49760 whole entry): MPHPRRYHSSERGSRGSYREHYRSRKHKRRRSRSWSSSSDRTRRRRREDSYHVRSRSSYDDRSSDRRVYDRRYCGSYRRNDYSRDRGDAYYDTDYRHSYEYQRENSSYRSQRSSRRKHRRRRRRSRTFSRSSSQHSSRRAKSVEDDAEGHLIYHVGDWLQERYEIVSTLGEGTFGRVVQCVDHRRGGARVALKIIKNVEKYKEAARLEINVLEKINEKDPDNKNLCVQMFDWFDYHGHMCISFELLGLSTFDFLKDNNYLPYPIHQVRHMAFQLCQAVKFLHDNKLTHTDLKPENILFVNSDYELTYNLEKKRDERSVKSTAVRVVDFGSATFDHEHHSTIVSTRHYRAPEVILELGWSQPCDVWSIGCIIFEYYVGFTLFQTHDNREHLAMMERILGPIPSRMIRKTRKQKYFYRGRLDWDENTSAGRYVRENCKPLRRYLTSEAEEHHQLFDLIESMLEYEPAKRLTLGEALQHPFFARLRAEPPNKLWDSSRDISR
Chain of CLK3 kinase (P49761 whole entry): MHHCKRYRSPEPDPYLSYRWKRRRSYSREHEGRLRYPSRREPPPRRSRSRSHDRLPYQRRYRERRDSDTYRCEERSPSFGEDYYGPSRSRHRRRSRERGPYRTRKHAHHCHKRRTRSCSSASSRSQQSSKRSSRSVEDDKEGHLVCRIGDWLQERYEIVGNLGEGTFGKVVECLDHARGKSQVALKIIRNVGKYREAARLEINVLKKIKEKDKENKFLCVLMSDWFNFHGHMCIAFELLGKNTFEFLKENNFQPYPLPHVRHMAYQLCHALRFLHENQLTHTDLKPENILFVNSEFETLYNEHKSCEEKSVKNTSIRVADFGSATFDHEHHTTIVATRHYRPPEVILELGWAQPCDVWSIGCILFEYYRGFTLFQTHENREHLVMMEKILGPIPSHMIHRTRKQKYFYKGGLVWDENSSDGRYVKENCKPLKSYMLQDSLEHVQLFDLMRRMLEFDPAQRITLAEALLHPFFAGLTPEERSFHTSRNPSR

Regarding `CC(C)n1cc(C(=O)Nc2cc3cc(-c4cncc(NC5CCN(C)CC5)n4)ncc3cn2)cn1` [compound 614], the EC50 on CLK3 kinase was 97 nM; on CLK2 kinase, 7 nM; in assay [1], 164 nM; in assay [2], at least 3000 nM. Also, in assay [2], the Emax was 41.1%.
The corresponding values for `Cc1n[nH]c2ccc(-c3cncc(N4CCC(O)CC4)n3)cc12` [compound 39] are 4260 nM, 25 nM, 1900 nM, 47.8 nM and 60.8%.
Taken in the same sequence, the figures for `O=C(Nc1c[nH]nc1C(=O)Nc1ccc(OCCN2CCCC2)cc1)c1cccnc1` [compound 3] were 3700 nM, 24 nM, 119 nM, 811 nM and 23.7%.
For `CC(C)Nc1cncc(-c2ccc3cnc(NC(=O)c4cccc(C5CCN(C)CC5)c4)cc3c2)n1` [compound 599], the EC50 on CLK3 kinase is 11 nM; on CLK2 kinase, 2 nM; in assay [1], 132 nM; in assay [2], at least 3000 nM. Also, the Emax in assay [2] amounted to 66.4%.
Consider `Cc1nnc(C(=O)Nc2cc3cc(-c4cncn4C)ccc3cn2)s1` [compound 584], for which the EC50 is 177 nM at CLK3 kinase, 6 nM on CLK2 kinase, 1890 nM in assay [1] and 71.5 nM in assay [2]. Further, the Emax in assay [2] was determined as 38.6%.
The corresponding values for `NC(=O)c1n[nH]c2ccc(-c3cncc(CN4CCCCC4)c3)cc12` [compound 74] are 498 nM, 12 nM, 1960 nM, 2.3 nM and 62.7%.
The corresponding values for `Cc1cc(-c2ccc3[nH]nc(C(=O)Nc4ccc(OC5CCN(C)CC5)cc4)c3c2)sn1` [compound 117] are 147 nM, 2 nM, 645 nM, 44.2 nM and 94.4%.
The corresponding values for `O=C(Nc1cccnc1)c1n[nH]c2ccc(-c3cncc(CN4CCS(=O)(=O)CC4)c3)cc12` [compound 100] are 37 nM, 1 nM, 210 nM, 616 nM and 8.6%.
Take `O=C(Nc1ccc(N2CCCC2)nc1)c1n[nH]c2ccc(-c3cncc(CN4CCC4)c3)cc12` [compound 68]: the EC50 at CLK3 kinase is 139 nM; at CLK2 kinase it was 1 nM; in assay [1] it was above 10000 nM; in assay [2] it was at least 3000 nM. In addition, the Emax in assay [2] is 26.6%.
Taken in the same sequence, the figures for `O=C(Nc1cc2cc(-c3cncc(NC4CCNCC4)n3)ncc2cn1)C1CCOCC1` [compound 613] were 133 nM, 7 nM, 3640 nM, 46.6 nM and 51.4%.
The corresponding values for `O=C(Nc1cccnc1)c1n[nH]c2cnc(-c3cncc(CN4CCCCC4)c3)cc12` [compound 118] are 601 nM, 8 nM, 848 nM, 138 nM and 21.1%.
Taken in the same sequence, the figures for `CC(C)OC(=O)N1CCC(n2cc(C(=O)Nc3cc4cc(-c5cnn(C)c5)ncc4cn3)cn2)CC1` [compound 609] were 61 nM, 6 nM, 824 nM, 154 nM and 50.2%.
Consider `O=C(Nc1cncc(-c2ccc3[nH]nc(-c4nc5c(-c6cccnc6)cncc5[nH]4)c3c2)c1)c1ccccc1` [compound 192], for which the 50% effective concentration (EC50) was 17 nM at CLK3 kinase, 5 nM on CLK2 kinase, above 10000 nM in assay [1] and 1.9 nM in assay [2]. Besides, in assay [2], the Emax came to 95.5%.
Taken in the same sequence, the figures for `CC(C)(C)C(=O)Nc1cncc(-c2ccc3[nH]nc(-c4nc5c(-c6cccnc6)cncc5[nH]4)c3c2)c1` [compound 188] were 23 nM, 3 nM, 85.4 nM, 1100 nM and 100%.
Taken in the same sequence, the figures for `CN1CCC(Nc2ccc(NC(=O)c3n[nH]c4cc(F)c(-c5cnn(C)c5)cc34)cn2)CC1` [compound 109] were 79 nM, 1 nM, 230 nM, 1160 nM and 100%.
Taken in the same sequence, the figures for `CN(C)C1CN(c2ncc(C(=O)Nc3cc4cc(-c5cnn(C)c5)ccc4cn3)s2)C1` [compound 564] were 37 nM, 2 nM, 1320 nM, 71.4 nM and 0%.
In the case of `CC(C)n1cc(C(=O)Nc2cc3cc(-c4cncn4C(C)C)ccc3cn2)cn1` [compound 586], the EC50 on CLK3 kinase amounted to 23 nM; at CLK2 kinase, 7 nM; in assay [1], 115 nM; in assay [2], 4.6 nM. In addition, in assay [2], the Emax was 41.7%.
Taken in the same sequence, the figures for `CN1CCC(Nc2cc(C(=O)Nc3cc4cc(-c5cnn(C)c5)ccc4cn3)ccn2)CC1` [compound 555] were 21 nM, 1 nM, 65.6 nM, at least 3000 nM and 85.1%.
Consider `O=C(Nc1ccc(OCCN2CCCC2)cc1)c1n[nH]cc1/C=C/c1cccnc1` [compound 19], for which the EC50 on CLK3 kinase was 967 nM; at CLK2 kinase, 6 nM; in assay [1], 1850 nM; in assay [2], at least 3000 nM. The Emax in assay [2] turned out to be 31.1%.
On to `Fc1cccc(-c2cncc3[nH]c(-c4n[nH]c5cnc(-c6cncc(OC7CCNCC7)c6)cc45)nc23)c1` [compound 152], for which the EC50 was 33 nM on CLK3 kinase, 1 nM at CLK2 kinase, above 10000 nM in assay [1] and 1710 nM in assay [2]. In addition, in assay [2], the Emax worked out at 31.8%.
On to `O=C(Nc1ccc(CN2CCCC2)cc1)c1n[nH]c2ccc(-c3cncnc3)cc12` [compound 103], for which the EC50 at CLK3 kinase came out at 1430 nM; on CLK2 kinase, 2 nM; in assay [1], 1310 nM; in assay [2], 307 nM. Also, the Emax in assay [2] came out at 36.3%.
Taken in the same sequence, the figures for `CN1CCC(Oc2ccc(NC(=O)c3n[nH]cc3/C=C/c3cccnc3)cn2)CC1` [compound 21] were 733 nM, 4 nM, 964 nM, at least 3000 nM and 92.6%.
The corresponding values for `O=C(NCc1cc(F)cc(F)c1)c1n[nH]c2ccc(-c3cncc(CN4CCCCC4)c3)cc12` [compound 77] are 1670 nM, 6 nM, 1820 nM, at least 3000 nM and 84.8%.
Taken in the same sequence, the figures for `CO[C@H]1CC[C@H](C(=O)Nc2cc3cc(-c4cnn(C)c4CN4CCCCC4)ccc3cn2)CC1` [compound 569] were 164 nM, 8 nM, 471 nM, at least 3000 nM and 0.2%.
With `CS(=O)(=O)c1ccc(NC(=O)c2n[nH]c3ccc(-c4cncc(CN5CCCCC5)c4)cc23)cn1` [compound 89], the EC50 at CLK3 kinase was 14 nM; on CLK2 kinase, 1 nM; in assay [1] it was 27 nM; in assay [2], 5.5 nM. Also, in assay [2], the Emax amounted to 79.8%.
The corresponding values for `Cn1ncc(-c2ccc3cnc(NC(=O)C4CCN(C(=O)c5ccccc5)CC4)cc3c2)c1CN1CCCCC1` [compound 571] are 318 nM, 7 nM, 706 nM, 35 nM and 51%.
The corresponding values for `CN1CCC2(CC1)CN(c1cc(C(=O)Nc3cc4cc(-c5cnn(C)c5CN5CCCCC5)cnc4cn3)ccn1)C2` [compound 610] are 31 nM, 9 nM, 607 nM, at least 3000 nM and 30.4%.
Regarding `Cc1ncc(C(=O)Nc2cc3cc(-c4cnc(C)n4C)ccc3cn2)s1` [compound 589], the concentration giving a half-maximal response (EC50) at CLK3 kinase is 31 nM; at CLK2 kinase it was 2 nM; in assay [1], 102 nM; in assay [2], at least 3000 nM. In addition, the Emax in assay [2] came out at 43.5%.
For the compound `Cc1ccncc1-c1cc2c(-c3nc4c(-c5cc(F)cc(CNS(C)(=O)=O)c5)cncc4[nH]3)n[nH]c2cn1` [compound 290], the EC50 on CLK3 kinase worked out at 17 nM; on CLK2 kinase it was 2 nM; in assay [1] it was 96.6 nM; in assay [2] it was 604 nM.
For the compound `O=C(Nc1cc2cc(-c3cnn4c3CCNC4)ccc2cn1)c1ccc(OC(F)F)cc1` [compound 574], the 50% effective concentration (EC50) stood at 200 nM on CLK3 kinase, 2 nM at CLK2 kinase, 375 nM in assay [1] and 1920 nM in assay [2]. Moreover, in assay [2], the Emax is 59.5%.
The corresponding values for `O=C(Nc1cc2cc(-c3cncc(NCC4(F)CNC4)n3)ccc2cn1)C1CC1` [compound 602] are 18 nM, 2 nM, 119 nM, 897 nM and 99.5%.
